Experimental data as given in article PMC5354814, “In silico and in vitro drug screening identifies new therapeutic approaches for Ewing sarcoma” (Oncotarget, 2016).
Like-named read-outs stand apart in the source and are kept apart here.

How the values were obtained:
mouse spleen cells = system: mouse spleen cells; design: method as in ref 19 (a number printed in a supplementary file, which may have a reference list of its own: not looked up in the article's list); details: 1 x 10^-4M and 1 x 10^-5M; cited from earlier work
[1] = design: method as in ref 19 (a number printed in a supplementary file, which may have a reference list of its own: not looked up in the article's list); details: rats, up to 15 mg gold/kg p.o.; cited from earlier work
[2] = cited from earlier work
[3] = Auranofin dose tolerance studies (maximum tolerated dose); format: in vivo, BALB/c mice
Source text: (§1) These findings led us to develop and assess injectable (i.v. and i.p.) formulations of auranofin. By defining maximum tolerated dose (MTD) following i.v. and i.p. administration of solution and suspension formulations of auranofin, our intent was to evaluate auranofin alone and in combination with ganetespib at MTD in mouse xenograft studies using the more convenient i.p. route of administration. Following administration of the solution formulation of auranofin i.v. and i.p., the maximum tolerated dose was estimated at 1 mg/kg and 6 mg/kg, respectively. Following a single i.p. suspension dose of auranofin, the maximum tolerated dose was 16 mg/kg. This dose was reduced to 12 mg/kg and dose tolerance was evaluated after 5 daily doses of auranofin suspension i.p. to determine the effects of the accumulation of gold in the blood due to the slow elimination of gold. Based on the i.p. suspension dose tolerance studies, the auranofin suspension formulation and dose level of 12 mg/kg was selected for evaluation in xenograft mouse studies.
The auranofin dose tolerance and pharmacokinetics study protocols were approved by the KU-Lawrence Institutional Animal Care and Use Committee (KU-IACUC). Subchronic dose tolerance studies were conducted in BALB/c mice to support the design of EWS mouse xenograft studies. By establishing the Maximum Tolerated Dose (MTD), we defined the upper limit of doses selected for EWS mouse xenograft and in vivo pharmacokinetics studies. Mice received a single dose of auranofin solution and suspension administered by i.v. and i.p. routes of administration. Following a starting dose of 1 mg/kg, doses were escalated in subsequent mice until intolerable drug-related adverse effects were observed. MTD was defined as the maximum dose that was not associated dose-limiting adverse effects in mice. The MTD was confirmed in a group of 3 mice. Mice were continuously monitored for up to 4 hours post-dose.

[4] = Formulation and PK studies of auranofin (blood gold, ICPMS); format: in vivo, BALB/c mice
Procedure: Ridaura® (auranofin) is typically delivered orally (capsules containing 3 mg auranofin) and has been repurposed in several clinical trials with limited results (i.e., clinicaltrials.gov identifier: NCT01419691, NCT02126527, and NCT02126527). […] Additionally, the ability to increase the dose of auranofin to achieve higher blood concentrations of gold was limited by dose-limiting gastrointestinal side effects (diarrhea, loose stools, nausea, vomiting and abdominal cramps). For our studies we dosed BALB/c mice orally at 10 mg/Kg with different formulations of auranofin suspensions prepared in 0.5% hydroxypropyl methyl cellulose to help assure dose uniformity. We compared the ground contents of Ridaura® capsules, the ground pure auranofin drug substance, auranofin suspension containing 0.5% sodium lauryl sulfate (a surfactant), auranofin suspensions with the pH adjusted to pH = 1, 4 and 7, auranofin suspension dosed into fasted versus high fat diet mice and finally a solution of auranofin prepared in 5% dimethyl sulfoxide (DMSO) with a pH = 1. Pharmacokinetic studies were conducted on all of these formulation variations. Blood samples from 3 mice at each time point (0, 1, 2, 4, 8, 12, 24, 48 and 96 hours) and the whole blood was assayed by ICPMS for gold.
We additionally studied dose accumulation of the gold by comparing a formulation of Ridaura® capsule contents as described above and dosing at 10 mg/Kg single dose versus dosing the mice once daily for 5 days. The PK study compared the gold content in whole blood samples as described above for the single dose versus the gold content in whole blood samples from the multidose arm with whole blood collected at the end of each 24 hour dosing period before the next dose (24, 48, 72, 96 and 120 hours) and then whole blood collected every 24 hours for 5 additional days (144, 168, 192, 216 and 240 hours) and assayed for gold content. The results of these formulation and PK studies are shown in Supplementary Table S2.
as §1

[5] = cited from earlier work; for LD50: PO
[6] = design: method as in ref 19 (a number printed in a supplementary file, which may have a reference list of its own: not looked up in the article's list); details: 5 and 10 mg gold/kg p.o.; cited from earlier work
[7] = design: method as in ref 19 (a number printed in a supplementary file, which may have a reference list of its own: not looked up in the article's list); details: cited from earlier work
[8] = design: method as in ref 19 (a number printed in a supplementary file, which may have a reference list of its own: not looked up in the article's list); details: rats, cited from earlier work
[9] = after 6 months of auranofin 3 mg BID
[10] = Suspension, single 10 mg/kg Oral

CC(=O)OC[C@H]1O[C@@H]([S-])[C@H](OC(C)=O)[C@@H](OC(C)=O)[C@@H]1OC(C)=O.CCP(CC)CC.[Au+] [Auranofin, auranofin]
plaque-forming cells (mouse spleen cells): marked inhibition | induction of liver enzyme activity [1]: failed to induce liver enzyme activity | mean steady state blood-gold concentration ([2]; 6 mg auranofin/day, n=63 patients): 0.68 ± 0.45 µg/mL | labelled gold excreted by day 10 [2, 9]: 75% | labelled gold excreted in feces by day 10 [2, 9]: 70% | labelled gold excreted in the urine by day 10 [2, 9]: 5% | mean plasma half-life [2, 9]: 612 h | mean total body terminal half-life [2, 9]: 1940 h | absorbed gold in erythrocytes / red cells [2]: approximately 40% | gold in blood associated with red cells [2]: ~40% | gold in blood associated with serum proteins [2]: 60% | gold in plasma / associated with serum proteins [2]: 60% | labelled gold excreted six months after single dose [2]: approximately 99.6% | labelled gold retained in the body six months after single dose [2]: 0.4% | time to steady state blood gold levels ([2]; clinical studies): about 3 months | time to steady state blood-gold concentrations ([2]; clinical studies): about three m onths | fraction of gold absorbed after oral administration ([2]; human, oral): ~25% | mean terminal body half-life ([2]; n = 5): 1920 h | mean terminal plasma half-life of auranofin gold at steady state ([2]; n = 5): 624 h | labelled gold excreted by day 10 ([2]; single 6 mg oral dose): 77% | labelled gold excreted in the feces by day 10 ([2]; single 6 mg oral dose): 73% | labelled gold excreted in the urine by day 10 ([2]; single 6 mg oral dose): 4% | mean plasma terminal half-life ([2]; single 6 mg oral dose): 408 h | mean total body terminal half-life ([2]; single 6 mg oral dose): 1390 h | absorbed gold excreted in urine ([2]; single dose): About 60% | administered dose excreted in urine ([2]; single dose): 15% | maximum tolerated dose ([3]; solution formulation, i.p.): 6 mg/kg | maximum tolerated dose ([3]; solution formulation, i.v.): 1 mg/kg | maximum tolerated dose ([3]; suspension, single i.p. dose): 16 mg/kg | Cmax ([4]; Solution, five daily 4 mg/kg IP): 10384 ng/mL | AUC (0 to ∞) ([4]; Solution, single 4 mg/kg IP): 210.336 µg·h/mL | Cmax ([4]; Solution, single 4 mg/kg IP): 4071 ng/mL | Half Life ([4]; Solution, single 4 mg/kg IP): 29.7 h | Tmax ([4]; Solution, single 4 mg/kg IP): 1 h | Cmax ([4]; Suspension, five daily 10 mg/kg Oral): 5780 ng/mL | AUC (0 to ∞) [4, 10]: 187.7 µg·h/mL | Cmax [4, 10]: 3680 ng/mL | Half Life [4, 10]: 28.4 h | Tmax [4, 10]: 24 h | AUC (0 to ∞) ([4]; Suspension, single 12 mg/kg IP): 550.846 µg·h/mL | Cmax ([4]; Suspension, single 12 mg/kg IP): 13068 ng/mL | Half Life ([4]; Suspension, single 12 mg/kg IP): 26.4 h | Tmax ([4]; Suspension, single 12 mg/kg IP): 1 h | effect of oral formulation variations on amount of gold absorbed ([4]; oral 10 mg/kg, various suspensions and a solution): unable to alter the amount of auranofin (gold) absorbed | LD50 ([5]; Mouse B6C3F1, F): 187 mg/kg | LD50 ([5]; Mouse B6C3F1, M): 190 mg/kg | LD50 ([5]; Mouse CF1, F): 225 mg/kg | acute oral LD50 ([5]; adult mice): 310 mg/kg | low-grade oxazolone-induced contact sensitivity [6]: stimulated | murine antibody production against SRBC [7]: inconsistent inhibition | chronic toxicity, histological examination ([8]; oral 3.6, 12 and 23 mg/kg/day, 12 months): dose-related karyomegaly and cytomegaly of the renal tubular epithelial | subacute toxicity findings ([8]; oral 3.6, 12 and 36 mg/kg/day, 3 months): Dose-related increase in salivation, decrease in hemoglobin | adenomas of the renal cortical tubular epithelium ([8]; oral, 12 months, 23 mg/kg/day): occurred in 2 females in the high dose
